The subject of assay [1] is Complete freund's adjuvant (CFA) Induced pain model. Kind of assay: Complete freund's adjuvant (CFA) Induced pain model (Hargreaves and Von Frey tests). The assay is classed as in vivo, CD1 mice. As to the method: (§1) Animals. A total of 40 male outbred CD1 mice were obtained from Charles River Laboratories at 8 weeks of age. Mice were housed in the animal facility of UT southwestern Medical Center, with constant temperature (21-24° C.) and humidity (30-50%) with free access to standard animal feed and water. The room was kept on a 12/12 light/dark cycle, with white light (light cycle) on at 2400 hours and red lights (dark cycle) on at 1200 hours. All of the procedures were conducted with approval from the UT southwestern Medical Center Institutional Animal Care and Use Committee (IACUC Protocol No. 2017-102090). Ugo Basile® the original Plantar Test (Hargreaves Apparatus) was used for thermal stimulation, where infrared beam was adjusted to give an average paw withdrawal latency of about 10 s in wild type mice and cut-off time was set to 30 s to avoid tissue damage. Ugo Basile® Dynamic Plantar Aesthesiometer (DPA) for mechanical stimulation (Electronic Von Frey) were used for mechanical stimulation, where the force (grams) was set at 50 g to prevent tissue damage. Animals were placed in clear acrylic cubicles (22×16.5×14 cm) for at least one hour prior testing. The testing/recording was done every 5 minutes with no repetition for the same mouse. Blinded person(s) to the individual treatment assignments recorded true reflexes.
Complete freund's adjuvant (CFA) Induced pain model. […] A baseline was for detected for the mice behavior towards thermal hyperalgesia using Hargreaves Test and mechanical allodynia using Von Frey Test. The drugs were administered via gavage for three consecutive days before CFA injection. On the morning of the experiment (6 hours before CFA injection), the last dose of drugs was administered. CFA was injected in the right paw, while the left paw remained un-injected as control. The testing involved two stimulus thermal hyperalgesia using Hargreaves Test and mechanical allodynia using Von Frey Test at Days 1, 2, 3, and 5.

A further assay concerns the target T1, EphB1 kinase domain (Homo sapiens, UniProt P54762).
T1 sequence (P54762 619-882 limits assumed): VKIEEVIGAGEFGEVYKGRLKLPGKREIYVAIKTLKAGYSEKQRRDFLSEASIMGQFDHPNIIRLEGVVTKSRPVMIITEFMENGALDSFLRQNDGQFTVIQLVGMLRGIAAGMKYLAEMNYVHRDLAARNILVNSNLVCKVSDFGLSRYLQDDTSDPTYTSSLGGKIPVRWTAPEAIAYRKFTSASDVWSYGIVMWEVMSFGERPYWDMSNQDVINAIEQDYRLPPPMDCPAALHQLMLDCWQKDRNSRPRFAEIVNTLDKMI
Kind of assay: Radiometric protein kinase assay (33PanQinase Activity Assay), EphB1. The settings on record: for inhibition of EphB1 kinase activity: concentrations up to 100 μM.

In a further assay the target is T2, EphB2 kinase domain (Homo sapiens, UniProt P29323).
T2 sequence (P29323 621-884 limits assumed): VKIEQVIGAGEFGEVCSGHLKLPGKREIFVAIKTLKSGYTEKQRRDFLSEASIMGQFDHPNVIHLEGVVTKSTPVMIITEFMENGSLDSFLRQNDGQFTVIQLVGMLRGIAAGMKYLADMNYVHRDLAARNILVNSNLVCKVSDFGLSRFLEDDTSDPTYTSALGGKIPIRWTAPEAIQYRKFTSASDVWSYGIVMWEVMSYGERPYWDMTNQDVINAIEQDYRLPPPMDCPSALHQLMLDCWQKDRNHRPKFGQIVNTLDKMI
Nature of the assay: Radiometric protein kinase assay (33PanQinase Activity Assay), EphB2.

A further assay addresses T3, EphB4 kinase domain (Homo sapiens, UniProt P54760).
T3 sequence (P54760 615-899 limits assumed): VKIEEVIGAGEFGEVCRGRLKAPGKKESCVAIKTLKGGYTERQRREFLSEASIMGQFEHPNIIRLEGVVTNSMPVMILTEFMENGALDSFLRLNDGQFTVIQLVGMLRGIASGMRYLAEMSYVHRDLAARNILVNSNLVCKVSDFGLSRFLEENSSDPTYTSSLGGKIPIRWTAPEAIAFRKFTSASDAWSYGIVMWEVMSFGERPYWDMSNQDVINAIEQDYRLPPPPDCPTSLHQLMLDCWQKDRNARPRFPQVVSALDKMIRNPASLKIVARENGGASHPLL
Nature of the assay: Radiometric protein kinase assay (33PanQinase Activity Assay), EphB4.

Assay [2] concerns Capsaicin Induced pain model. Kind of assay: Capsaicin Induced pain model (Hargreaves and Von Frey tests). The format is in vivo, CD1 mice. The settings on record: capsaicin-injected paw vs controls; Demeclocycline 17 mg/kg/day, DC 7 mg/kg/day, MCD 5 mg/kg/day, p.o. As to the method:
as §1
Capsaicin Induced pain model. […]

The target in a further assay is T4, EphB3 kinase domain (Homo sapiens, UniProt P54753).
T4 sequence (P54753 633-896 limits assumed): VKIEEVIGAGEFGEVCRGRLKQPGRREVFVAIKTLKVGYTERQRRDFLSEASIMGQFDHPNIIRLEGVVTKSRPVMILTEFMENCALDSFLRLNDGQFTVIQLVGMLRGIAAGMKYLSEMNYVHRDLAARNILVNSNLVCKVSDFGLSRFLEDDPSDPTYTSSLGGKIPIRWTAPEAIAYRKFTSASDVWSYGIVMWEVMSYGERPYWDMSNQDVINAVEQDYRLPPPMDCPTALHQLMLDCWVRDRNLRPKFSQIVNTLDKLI
Nature of the assay: Radiometric protein kinase assay (33PanQinase Activity Assay), EphB3.

For assay [3], the system named is Human glioblastoma (GBM) cells. Nature of the assay: Glioblastoma cell migration. The assay is classed as cell-based. To be noted: 12.5, 25, 50, and 100 μM; after 24 hours. As to the method:
Cell migration was tested after 24 hours.

[4] abbreviates: tested at Days 1, 2, 3, and 5, P<0.001.

Results on five molecules are retold here after patent US20220347194A1, “METHODS AND COMPOSITIONS FOR TREATING PAIN AND OTHER EPH RECEPTOR-ASSOCIATED CONDITIONS” (THE BOARD OF REGENTS OF THE UNIVERSITY OF TEXAS SYSTEM, priority 2019, published 2022).

Where only a bound is given, the exact number is not on record here.

Protocol for EphB1 kinase domain: (§2) Kinase domains were produced by ProQinase using human cDNAs to express recombinant GST/His-fusion proteins that were purified by affinity chromatography and determined to be enzymatically active by phosphorylation of a Poly (Glu, Tyr) substrate. The FDA compounds were assayed in 10 concentrations in the range from 1×10^−4 M to 3×10^−9 M for their ability to effect kinase activities. The final DMSO concentration in the reaction cocktails was 1% in all cases. Kinase assays were performed in 96-well FlashPlates™ from PerkinElmer (Boston, Mass., USA) in a 50 μl reaction volume. The reaction cocktail was pipetted in four steps in the following order: 20 μl of assay buffer (standard buffer), 5 μl of ATP solution (in H2O), 5 μl of test compound (in 10% DMSO), and 20 μl enzyme/substrate mix. […] The reaction cocktails were incubated at 30° C. for 60 minutes. The reaction was stopped with 50 μl of 2% (v/v) H3PO4, plates were aspirated and washed two times with 200 μl 0.9% (w/v) NaCl. Incorporation of ^33Pi was determined with a microplate scintillation counter (Microbeta, Wallac). All assays were performed with a BeckmanCoulter/SAGIAN™ Core System. The median value of the counts in column 1 (n=8) of each assay plate was defined as “low control”. This value reflects unspecific binding of radioactivity to the plate in the absence of a protein kinase but in the presence of the substrate. The median value of the counts in column 7 of each assay plate (n=8) was taken as the “high control”, i.e. full activity in the absence of any inhibitor. The difference between high and low control was taken as 100% activity. As part of the data evaluation the low control value from a particular plate was subtracted from the high control value as well as from all 80 “compound values” of the corresponding plate. The residual activity (in %) for each well of a particular plate was calculated by using the following formula: Res. Activity (%)=100×[(cpm of compound−low control)/(high control−low control)]
(§3) The fitting method used was a least-squares fit.
For each kinase, the median value of the cpm of three wells with complete reaction cocktails, but without kinase, was defined as “low control” (n=3). This value reflects unspecific binding of radioactivity to the plate in the absence of protein kinase but in the presence of the substrate. Additionally, for each kinase the median value of the cpm of three other wells with the complete reaction cocktail, but without any compound, was taken as the “high control”, i.e. full activity in the absence of any inhibitor (n=3). The difference between high and low control was taken as 100% activity for each kinase. As part of the data evaluation the low control of each row of a particular plate was subtracted from the high control value as well as from their corresponding “compound values”. The residual activity (in %) for each well of each row of a particular plate was calculated by using the following formula: Res. Activity (%)=100×[(cpm of compound−low control)/(high control−low control)]. […] The mathematical model used was “Sigmoidal response (variable slope)” with parameters “top” fixed at 100% and “bottom” at 0%.
Protocol for EphB2 kinase domain: (§4) Kinase domains were produced by ProQinase using human cDNAs to express recombinant GST/His-fusion proteins that were purified by affinity chromatography and determined to be enzymatically active by phosphorylation of a Poly (Glu, Tyr) substrate. The FDA compounds were assayed in 10 concentrations in the range from 1×10^−4 M to 3×10^−9 M for their ability to effect kinase activities. The final DMSO concentration in the reaction cocktails was 1% in all cases. Kinase assays were performed in 96-well FlashPlates™ from PerkinElmer (Boston, Mass., USA) in a 50 μl reaction volume. The reaction cocktail was pipetted in four steps in the following order: 20 μl of assay buffer (standard buffer), 5 μl of ATP solution (in H2O), 5 μl of test compound (in 10% DMSO), and 20 μl enzyme/substrate mix. […] The reaction cocktails were incubated at 30° C. for 60 minutes. The reaction was stopped with 50 μl of 2% (v/v) H3PO4, plates were aspirated and washed two times with 200 μl 0.9% (w/v) NaCl. Incorporation of ^33Pi was determined with a microplate scintillation counter (Microbeta, Wallac). All assays were performed with a BeckmanCoulter/SAGIAN™ Core System. The median value of the counts in column 1 (n=8) of each assay plate was defined as “low control”. This value reflects unspecific binding of radioactivity to the plate in the absence of a protein kinase but in the presence of the substrate. […] The residual activity (in %) for each well of a particular plate was calculated by using the following formula: Res. Activity (%)=100×[(cpm of compound−low control)/(high control−low control)] […]
(§5) For each kinase, the median value of the cpm of three wells with complete reaction cocktails, but without kinase, was defined as “low control” (n=3). This value reflects unspecific binding of radioactivity to the plate in the absence of protein kinase but in the presence of the substrate. […] The residual activity (in %) for each well of each row of a particular plate was calculated by using the following formula: Res. Activity (%)=100×[(cpm of compound−low control)/(high control−low control)]. […]
Protocol for EphB3 kinase domain: as §2, §3
For each kinase, the median value of the cpm of three wells with complete reaction cocktails, but without kinase, was defined as “low control” (n=3). This value reflects unspecific binding of radioactivity to the plate in the absence of protein kinase but in the presence of the substrate. Additionally, for each kinase the median value of the cpm of three other wells with the complete reaction cocktail, but without any compound, was taken as the “high control”, i.e. full activity in the absence of any inhibitor (n=3). […] The residual activity (in %) for each well of each row of a particular plate was calculated by using the following formula: Res. Activity (%)=100×[(cpm of compound−low control)/(high control−low control)]. […]
Protocol for EphB4 kinase domain: as §4, §5

What is called IC50 is the concentration that inhibits the measured activity by half. Read a low IC50 as greater potency. With `CN(C)[C@@H]1C(O)=C(C(N)=O)C(=O)[C@@]2(O)C(O)=C3C(=O)c4c(O)ccc(Cl)c4[C@@H](O)[C@H]3C[C@@H]12` [Demeclocycline, demeclocycline], the “paw withdrawal latency, thermal stimulus (Hargreaves)” value in assay [1] (injected paw vs controls, p.o) is listed as “prolonged the paw withdrawal latency”; in assay [2] it was “prolonged the paw withdrawal latency”. The “response to mechanical stimulus (von Frey)” value was “same behavior was observed” in assay [1] (injected paw vs controls, p.o) and “same behavior was observed” in assay [2]. The “time until which significant improvement for mechanical (tactile) allodynia was shown” value in assay [1] (setting [4]) was determined as 1 days. For the same molecule, the “time until which significant improvement in paw withdrawal latency for thermal hyperalgesia was shown” value in assay [1] (setting [4]) was ≤ 2 days. Further, the IC50 against EphB1 kinase domain is 39 µM; against EphB2 kinase domain, 37 to 92 µM; against EphB4 kinase domain, 37 to 92 µM; against EphB3 kinase domain it was 47 µM. Moreover, on EphB3 kinase domain (low nanomolar ranges (biphasic)), the “influence on EphB3 catalytic activity” value is reported as “slightly elevated activity”. In addition, in assay [3], the glioblastoma cell migration entry is given as “inhibited glioblastoma cell migration”.
As to `CCC(=O)NCC[C@@H]1CCc2ccc3c(c21)CCO3` [ramelteon], the “inhibition of EphB1 kinase activity” value against EphB1 kinase domain is recorded as “failed to inhibit”.
Regarding `CN(C)c1ccc(O)c2c1C[C@H]1C[C@H]3[C@H](N(C)C)C(O)=C(C(N)=O)C(=O)[C@@]3(O)C(O)=C1C2=O` [minocycline], the IC50 at EphB1 kinase domain is 56 µM; at EphB2 kinase domain, 37 to 92 µM; against EphB4 kinase domain it was 37 to 92 µM; against EphB3 kinase domain it was 92 µM.
As to `NC(=O)C(c1ccccc1)(c1ccccc1)[C@@H]1CCN(CCc2ccc3c(c2)CCO3)C1` [darifenacin], on EphB1 kinase domain, the “inhibition of EphB1 kinase activity” value is given as “failed to inhibit”.
For the molecule `CN(C)[C@@H]1C(O)=C(C(N)=O)C(=O)[C@@]2(O)C(O)=C3C(=O)c4c(O)ccc(Cl)c4[C@@](C)(O)[C@H]3C[C@@H]12` [chlortetracycline], the IC50 against EphB1 kinase domain was 44 µM; on EphB2 kinase domain it was 37 to 92 µM; against EphB4 kinase domain, 37 to 92 µM; at EphB3 kinase domain it was 55 µM.
